Results on two compounds are retold here after PubChem BioAssay (NCI).

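Test compounds were applied to cells in 96-well plates for 48 hours at 5 doses. GI50 is the concentration that inhibits growth by half. TGI: concentration producing complete growth inhibition.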 Bounds are passed on as bounds.

Some test systems named below: CCRF-CEM leukemia; COLO 205 colon; DU-145 prostate; HCT-116 colon; MALME-3M melanoma; MCF7 breast; OVCAR-8 ovarian; SN12C renal; SNB-75 CNS; UACC-62 melanoma.
What all share (test): NCI tumour cell line growth inhibition, 48 h

As for `O=c1[nH]ccc2nc(N3CCC(O)CC3)nc(Nc3ccc(N4CCOCC4)cc3)c12`, the GI50 in the test on CCRF-CEM leukemia is 28.3 µM; in the test on COLO 205 colon, 1.71 µM; in the test on DU-145 prostate, 2.95 µM; with HCT-116 colon, 0.736 µM; with MALME-3M melanoma it was 1.61 µM; with MCF7 breast, 4.45 µM. Further, the GI50 in the test on OVCAR-8 ovarian was greater than 100 µM; in the test with SN12C renal it was 2.55 µM; in the test with SNB-75 CNS, 2.39 µM; with UACC-62 melanoma it was 20.5 µM. For the same compound, the TGI in the test on CCRF-CEM leukemia is greater than 100 µM; in the test on COLO 205 colon it was 5.05 µM; in the test on DU-145 prostate, greater than 100 µM; in the test on HCT-116 colon it was greater than 100 µM; in the test on MALME-3M melanoma, greater than 63 µM; with MCF7 breast it was greater than 100 µM. The TGI in the test with OVCAR-8 ovarian was greater than 100 µM; in the test on SN12C renal, greater than 100 µM; in the test with SNB-75 CNS it was 12.1 µM; in the test on UACC-62 melanoma, greater than 100 µM.

Regarding `Cc1cc(C)nc(NS(=O)(=O)c2ccc(Nc3nc4nc(NCc5ccccc5)nc(-c5ccc(O)cc5)c4c(=O)[nH]3)cc2)n1`, the GI50 with CCRF-CEM leukemia was 54.6 µM; in the test on COLO 205 colon, 81.8 µM; in the test on DU-145 prostate it was 25.9 µM; in the test on HCT-116 colon, 23.6 µM; in the test with MALME-3M melanoma, 32.8 µM; with MCF7 breast it was 9.58 µM. The GI50 is 36.5 µM in the test with OVCAR-8 ovarian, 25.1 µM in the test with SN12C renal, 64.6 µM with SNB-75 CNS and 25.2 µM with UACC-62 melanoma. Moreover, the TGI in the test with CCRF-CEM leukemia was greater than 100 µM; in the test on COLO 205 colon, greater than 100 µM; in the test with DU-145 prostate, greater than 100 µM; in the test with HCT-116 colon it was greater than 100 µM; in the test with MALME-3M melanoma, greater than 100 µM; in the test with MCF7 breast, 56.8 µM. For the same compound, the TGI in the test with OVCAR-8 ovarian, in the test with SN12C renal, with SNB-75 CNS and with UACC-62 melanoma was greater than 100 µM throughout.
